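Cultured in 96-well plates, cells were exposed to test compound for 48 hours across five concentrations. GI50 marks 50% less growth.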 The source made the active and inactive calls. Rule as the data show it: active = GI50 up to about 1.1 µM and inactive = higher.
How the values were obtained:
Assay in all cases: growth of human tumour cells (NCI), 48 h
786-0 = system: 786-0
CAKI-1 = system: CAKI-1
CCRF-CEM = system: CCRF-CEM
HL-60 = system: HL-60
HT-29 = system: HT-29
KM12 = system: KM12
MOLT-4 = system: MOLT-4
NCI-H23 = system: NCI-H23
NCI-H522 = system: NCI-H522
OVCAR-3 = system: OVCAR-3
OVCAR-4 = system: OVCAR-4
SF-539 = system: SF-539
SK-MEL-5 = system: SK-MEL-5
SK-OV-3 = system: SK-OV-3
SN12C = system: SN12C
SNB-75 = system: SNB-75
TK-10 = system: TK-10
U-251 = system: U-251
UACC-62 = system: UACC-62
UO-31 = system: UO-31

| Compound | GI50 (786-0) | GI50 (CAKI-1) | GI50 (CCRF-CEM) | GI50 (HL-60) | GI50 (HT-29) | GI50 (KM12) | GI50 (MOLT-4) | GI50 (NCI-H23) | GI50 (NCI-H522) | GI50 (OVCAR-3) | GI50 (OVCAR-4) | GI50 (SF-539) | GI50 (SK-MEL-5) | GI50 (SK-OV-3) | GI50 (SN12C) | GI50 (SNB-75) | GI50 (TK-10) | GI50 (U-251) | GI50 (UACC-62) | GI50 (UO-31) |
| --- | --- | --- | --- | --- | --- | --- | --- | --- | --- | --- | --- | --- | --- | --- | --- | --- | --- | --- | --- | --- |
| O=C(O)CNS(=O)(=O)c1ccc(NC(=O)c2ccc(F)cc2)cc1 | > 100 µM (inactive) | > 100 µM (inactive) | > 100 µM (inactive) | > 100 µM (inactive) | > 100 µM (inactive) | > 100 µM (inactive) | > 100 µM (inactive) | > 100 µM (inactive) | > 10 µM (inactive) | > 100 µM (inactive) | > 100 µM (inactive) | > 100 µM (inactive) | > 100 µM (inactive) | > 100 µM (inactive) | > 100 µM (inactive) | > 100 µM (inactive) | > 100 µM (inactive) | > 100 µM (inactive) | > 100 µM (inactive) | > 100 µM (inactive) |
| N#CC1(c2nc3ccccc3o2)C(=O)C(=O)N(C2C3CC4CC(C3)CC2C4)C(=O)C1=O (configuration not stated) | > 100 µM (inactive) | > 100 µM (inactive) | 64.9 µM (inactive) | 42 µM (inactive) | > 100 µM (inactive) | > 100 µM (inactive) | > 100 µM (inactive) | > 100 µM (inactive) | > 100 µM (inactive) | > 100 µM (inactive) | > 100 µM (inactive) | > 100 µM (inactive) | > 100 µM (inactive) | > 100 µM (inactive) | > 100 µM (inactive) | > 100 µM (inactive) | > 100 µM (inactive) | > 100 µM (inactive) | > 100 µM (inactive) | > 100 µM (inactive) |
| CC(C)(CN1CCCCC1)C(=O)/C=C/c1c(Cl)cccc1Cl | 1.31 µM (inactive) | 1.08 µM (active) | 0.52 µM (active) | 1.61 µM (inactive) | 1.38 µM (inactive) | 0.867 µM (active) | 0.918 µM (active) | 1.35 µM (inactive) | 0.124 µM (active) | 0.955 µM (active) | 1.73 µM (inactive) | 2.08 µM (inactive) | 1.42 µM (inactive) | 2.49 µM (inactive) | 1.49 µM (inactive) | 0.735 µM (active) | 0.627 µM (active) | 1.38 µM (inactive) | 1.29 µM (inactive) | 0.971 µM (active) |
| CCCCCCc1cc2cc(C(=O)Nc3nc(C45CC6CC(CC(C6)C4)C5)cs3)c(=O)oc2cc1O | 12.1 µM (inactive) | 8.81 µM (inactive) | 6.78 µM (inactive) | 5.18 µM (inactive) | 13.3 µM (inactive) | 11 µM (inactive) | 15.1 µM (inactive) | 5 µM (inactive) | 3.45 µM (inactive) | 13.1 µM (inactive) | 11.1 µM (inactive) | 10.8 µM (inactive) | 11.9 µM (inactive) | 20.3 µM (inactive) | 5.53 µM (inactive) | 7.62 µM (inactive) | 11.3 µM (inactive) | 11.6 µM (inactive) | 4.65 µM (inactive) | 24.5 µM (inactive) |
| CS(=O)(=O)c1n[nH]c2nc(O)nc(O)c12 | > 10 µM (inactive) | > 10 µM (inactive) | > 10 µM (inactive) | > 10 µM (inactive) | > 10 µM (inactive) | > 10 µM (inactive) | > 10 µM (inactive) | > 10 µM (inactive) | > 10 µM (inactive) | > 10 µM (inactive) | > 10 µM (inactive) | > 10 µM (inactive) | > 10 µM (inactive) | > 10 µM (inactive) | > 10 µM (inactive) | > 10 µM (inactive) | > 10 µM (inactive) | > 10 µM (inactive) | > 10 µM (inactive) | – |
| CCN(CCO)C(=O)C1(c2ccccc2)CCCCC1 | – | > 10 µM (inactive) | > 10 µM (inactive) | > 10 µM (inactive) | > 10 µM (inactive) | > 10 µM (inactive) | > 10 µM (inactive) | > 10 µM (inactive) | > 10 µM (inactive) | > 10 µM (inactive) | > 10 µM (inactive) | > 10 µM (inactive) | > 10 µM (inactive) | > 10 µM (inactive) | > 10 µM (inactive) | > 10 µM (inactive) | > 10 µM (inactive) | > 10 µM (inactive) | > 10 µM (inactive) | > 10 µM (inactive) |
| Cc1nc2ccc(S(=O)(=O)Nc3nccs3)cc2c(=O)n1NS(=O)(=O)c1nccs1 | – | > 100 µM (inactive) | 86.7 µM (inactive) | 79.1 µM (inactive) | 41.5 µM (inactive) | 64.9 µM (inactive) | 28.5 µM (inactive) | > 100 µM (inactive) | 60.8 µM (inactive) | > 100 µM (inactive) | > 100 µM (inactive) | > 100 µM (inactive) | 88.7 µM (inactive) | > 100 µM (inactive) | > 100 µM (inactive) | > 100 µM (inactive) | > 100 µM (inactive) | > 100 µM (inactive) | 72.9 µM (inactive) | 13.7 µM (inactive) |
